# From US20150017667A1, “MEANS AND METHODS FOR ASSESSING LIVER DISORDERS” (BASF SE, priority 2012, published 2015)
# Read-outs that look alike come from different tables or passages of the source. Marks after values point to notes of the source that are not given here.
# Experiments:
# [1] = system: male rats; test: 28-day repeated dose oral toxicity study (OECD 407) with GC-MS/LC-MS plasma metabolite profiling, male rats; type: in vivo, rat
# Excerpt: Drinking water was also offered ad libitum.
# The samples were centrifuged for generation of plasma.
# [2] = system: female rats; settings: rat, in vivo
# Method: (§1) A group of each 5 male and female rats was dosed once daily with the indicated compounds (see Table 5, below for compounds, applied doses and administeration details) over 28 days.
# (§2) Each dose group in the studies consisted of five rats per sex. Additional groups of each 5 male and female animals served as controls. Before starting the treatment period, animals, which were 62-64 days old when supplied, were acclimatized to the housing and environmental conditions for 7 days. All animals of the animal population were kept under the same constant temperature (20-24±3° C.) and the same constant humidity (30-70%). The animals of the animal population were fed ad libitum. The food to be used was essentially free of chemical or microbial contaminants. Drinking water was also offered ad libitum. Accordingly, the water was free of chemical and microbial contaminants as laid down in the European Drinking Water Directive 98/83/EG. The illumination period was 12 hours light followed by 12 hours darkness (12 hours light, from 6:00 to 18:00, and 12 hours darkness, from 18:00 to 6:00).
# (§3) In the morning of day 7, 14, and 28, blood was taken from the retroorbital venous plexus from fasted anaesthetized animals. From each animal, 1 ml of blood was collected with EDTA as anticoagulant. The samples were centrifuged for generation of plasma. All plasma samples were covered with a N2 atmosphere and then stored at −80° C. until analysis.
# (§4) For mass spectrometry-based metabolite profiling analyses plasma samples were extracted and a polar and a non-polar (lipid) fraction was obtained. For GC-MS analysis, the non-polar fraction was treated with methanol under acidic conditions to yield the fatty acid methyl esters. Both fractions were further derivatised with O-methyl-hydroxyamine hydrochloride and pyridine to convert Oxogroups to O-methyloximes and subsequently with a silylating agent before analysis. In LC-MS analysis, both fractions were reconstituted in appropriate solvent mixtures. HPLC was performed by gradient elution on reversed phase separation columns.
# (§5) Following comprehensive analytical validation steps, the data for each analyte were normalized against data from pool samples. These samples were run in parallel through the whole process to account for process variability. The significance of treatment group values specific for sex, treatment duration and metabolite was determined by comparing means of the treated groups to the means of the respective untreated control groups using WELCH-test and quantified with treatment ratios versus control and p-values.
# [3] = system: female rats; test: 28-day repeated dose oral toxicity study (OECD 407) with GC-MS/LC-MS plasma metabolite profiling, female rats
# Method: as §1, §2, §3, §4, §5
smiles,measurement,setting,value
CC/C(=C(\c1ccccc1)c1ccc(OCCN(C)C)cc1)c1ccccc1 [Tamoxifen],16-Methylheptadecanoic acid change in plasma,[1]; m7,0.58*
same,17-Methyloctadecanoic acid change in plasma,[1]; m7,0.61*
same,Campesterol change in plasma,[1]; m7,0.59*
same,Lysophosphatidylcholine (C18:1) change in plasma,[1]; m7,0.78*
same,Myristic acid (C14:0) change in plasma,[1]; m7,0.65*
same,PC No 04 (putative) change in plasma,[1]; m7,0.44*
same,Palmitoleic acid (C16:cis[9]1) change in plasma,[1]; m7,0.57*
same,"Phosphatidylcholine (C16:0,C20:4) change in plasma",[1]; m7,0.87*
same,"Phosphatidylcholine (C16:1,C18:2) change in plasma",[1]; m7,0.76*
same,"Phosphatidylcholine (C18:1,C18:2) change in plasma",[1]; m7,0.79*
same,Phosphatidylcholine No 02 change in plasma,[1]; m7,0.53*
same,"Sphingomyelin (d18:1,C16:0) change in plasma",[1]; m7,0.66*
same,Tyrosine change in plasma,[1]; m7,0.77*
same,Unknown lipid (28000473) change in plasma,[1]; m7,0.31*
same,Unknown lipid (68000034) change in plasma,[1]; m7,0.74*
same,Uracil change in plasma,[1]; m7,0.86*
same,beta-Sitosterol change in plasma,[1]; m7,0.75*
same,Lysophosphatidylcholine (C20:4) change in plasma,"[1]; m7, first of two rows with this name (r24)",0.90*
same,Lysophosphatidylcholine (C20:4) change in plasma,"[1]; m7, second of two rows with this name (r25)",0.77*
same,16-Methylheptadecanoic acid change in plasma,[1]; m14,0.60*
same,17-Methyloctadecanoic acid change in plasma,[1]; m14,0.64*
same,Campesterol change in plasma,[1]; m14,0.74*
same,Lysophosphatidylcholine (C18:1) change in plasma,[1]; m14,0.84*
same,Myristic acid (C14:0) change in plasma,[1]; m14,0.60*
same,PC No 04 (putative) change in plasma,[1]; m14,0.56*
same,Palmitoleic acid (C16:cis[9]1) change in plasma,[1]; m14,0.43*
same,"Phosphatidylcholine (C16:0,C20:4) change in plasma",[1]; m14,0.96*
same,"Phosphatidylcholine (C16:1,C18:2) change in plasma",[1]; m14,0.69*
same,"Phosphatidylcholine (C18:1,C18:2) change in plasma",[1]; m14,0.83*
same,Phosphatidylcholine No 02 change in plasma,[1]; m14,0.60*
same,"Sphingomyelin (d18:1,C16:0) change in plasma",[1]; m14,0.73*
same,Tyrosine change in plasma,[1]; m14,0.85*
same,Unknown lipid (28000473) change in plasma,[1]; m14,0.46*
same,Unknown lipid (68000034) change in plasma,[1]; m14,0.59*
same,Uracil change in plasma,[1]; m14,0.75*
same,beta-Sitosterol change in plasma,[1]; m14,0.83*
same,Lysophosphatidylcholine (C20:4) change in plasma,"[1]; m14, first of two rows with this name (r24)",0.89*
same,Lysophosphatidylcholine (C20:4) change in plasma,"[1]; m14, second of two rows with this name (r25)",0.79*
same,16-Methylheptadecanoic acid change in plasma,[1]; m28,0.48*
same,17-Methyloctadecanoic acid change in plasma,[1]; m28,0.48*
same,Campesterol change in plasma,[1]; m28,0.55*
same,Lysophosphatidylcholine (C18:1) change in plasma,[1]; m28,0.81*
same,Myristic acid (C14:0) change in plasma,[1]; m28,0.61*
same,PC No 04 (putative) change in plasma,[1]; m28,0.54*
same,Palmitoleic acid (C16:cis[9]1) change in plasma,[1]; m28,0.32*
same,"Phosphatidylcholine (C16:0,C20:4) change in plasma",[1]; m28,0.97*
same,"Phosphatidylcholine (C16:1,C18:2) change in plasma",[1]; m28,0.74*
same,"Phosphatidylcholine (C18:1,C18:2) change in plasma",[1]; m28,0.99
same,Phosphatidylcholine No 02 change in plasma,[1]; m28,0.62*
same,"Sphingomyelin (d18:1,C16:0) change in plasma",[1]; m28,0.71*
same,Tyrosine change in plasma,[1]; m28,0.86
same,Unknown lipid (28000473) change in plasma,[1]; m28,0.37*
same,Unknown lipid (68000034) change in plasma,[1]; m28,0.45*
same,Uracil change in plasma,[1]; m28,0.79*
same,beta-Sitosterol change in plasma,[1]; m28,0.73*
same,Lysophosphatidylcholine (C20:4) change in plasma,"[1]; m28, first of two rows with this name (r24)",0.88*
same,Lysophosphatidylcholine (C20:4) change in plasma,"[1]; m28, second of two rows with this name (r25)",0.70*
same,"3-Methoxytyrosine, ratio versus control","[1]; plasma, day 7",1.17*
same,"Serine, ratio versus control","[1]; plasma, day 7",1.17*
same,"Xylitol, ratio versus control","[1]; plasma, day 7",1.57*
same,"Threonine, ratio versus control","[1]; plasma, day 7 (Table 7c)",0.96
same,"3-Methoxytyrosine, ratio versus control","[1]; plasma, day 14",1.31*
same,"Xylitol, ratio versus control","[1]; plasma, day 14",2.05*
same,"Threonine, ratio versus control","[1]; plasma, day 14 (Table 7c)",1.22*
same,"3-Methoxytyrosine, ratio versus control","[1]; plasma, day 28",1.39*
same,"Xylitol, ratio versus control","[1]; plasma, day 28",1.75*
same,"Threonine, ratio versus control","[1]; plasma, day 28 (Table 7c)",1.10*
same,"Threonine, ratio versus control",[2],1.05*
same,"3-Methoxytyrosine, ratio versus control",[3]; day 7,1.26*
same,"16-Methylheptadecanoic acid, ratio versus control",[3]; day 7,0.73*
same,"17-Methyloctadecanoic acid, ratio versus control",[3]; day 7,0.80*
same,"Ketoleucine, ratio versus control",[3]; day 7,0.92
same,"Normetanephrine, ratio versus control",[3]; day 7,0.84
same,"Palmitoleic acid (C16:cis[9]1), ratio versus control",[3]; day 7,0.91
same,"Phosphatidylcholine (C18:0,C20:3), ratio versus control",[3]; day 7,0.81*
same,"TAG (C18:1,C18:2,C18:3), ratio versus control",[3]; day 7,2.78*
same,"TAG (C42:9) (DAG-Fragment) (putative), ratio versus control",[3]; day 7,0.56*
same,"Threonine, ratio versus control",[3]; day 7,1.17*
same,"Uracil, ratio versus control",[3]; day 7,0.86*
same,"Xylitol, ratio versus control",[3]; day 7,1.29*
same,"TAG (C18:2,C18:2), ratio versus control",[3]; day 7 (Table 7a),3.21*
same,"Lysophosphatidylcholine (C20:4), ratio versus control","[3]; day 7 (first line of this name, r15)",0.92*
same,"Lysophosphatidylcholine (C20:4), ratio versus control","[3]; day 7 (second line of this name, r16)",0.88*
same,"3-Methoxytyrosine, ratio versus control",[3]; day 14,1.61*
same,"16-Methylheptadecanoic acid, ratio versus control",[3]; day 14,0.97
same,"17-Methyloctadecanoic acid, ratio versus control",[3]; day 14,0.92
same,"Ketoleucine, ratio versus control",[3]; day 14,0.71*
same,"Normetanephrine, ratio versus control",[3]; day 14,1.15
same,"Palmitoleic acid (C16:cis[9]1), ratio versus control",[3]; day 14,0.69*
same,"Phosphatidylcholine (C18:0,C20:3), ratio versus control",[3]; day 14,0.89*
same,"TAG (C18:1,C18:2,C18:3), ratio versus control",[3]; day 14,2.96*
same,"TAG (C42:9) (DAG-Fragment) (putative), ratio versus control",[3]; day 14,0.65*
same,"Uracil, ratio versus control",[3]; day 14,0.86*
same,"Xylitol, ratio versus control",[3]; day 14,1.63*
same,"TAG (C18:2,C18:2), ratio versus control",[3]; day 14 (Table 7a),2.84*
same,"Lysophosphatidylcholine (C20:4), ratio versus control","[3]; day 14 (first line of this name, r15)",0.96*
same,"Lysophosphatidylcholine (C20:4), ratio versus control","[3]; day 14 (second line of this name, r16)",0.84*
same,"3-Methoxytyrosine, ratio versus control",[3]; day 28,1.38*
same,"16-Methylheptadecanoic acid, ratio versus control",[3]; day 28,0.78*
same,"17-Methyloctadecanoic acid, ratio versus control",[3]; day 28,0.89*
same,"Ketoleucine, ratio versus control",[3]; day 28,0.77*
same,"Normetanephrine, ratio versus control",[3]; day 28,0.89
same,"Palmitoleic acid (C16:cis[9]1), ratio versus control",[3]; day 28,0.60*
same,"Phosphatidylcholine (C18:0,C20:3), ratio versus control",[3]; day 28,0.88*
same,"TAG (C18:1,C18:2,C18:3), ratio versus control",[3]; day 28,2.18*
same,"TAG (C42:9) (DAG-Fragment) (putative), ratio versus control",[3]; day 28,0.81*
same,"Threonine, ratio versus control",[3]; day 28,0.98
same,"Uracil, ratio versus control",[3]; day 28,0.64*
same,"Xylitol, ratio versus control",[3]; day 28,1.71*
same,"TAG (C18:2,C18:2), ratio versus control",[3]; day 28 (Table 7a),2.20*
same,"Lysophosphatidylcholine (C20:4), ratio versus control","[3]; day 28 (first line of this name, r15)",0.91*
same,"Lysophosphatidylcholine (C20:4), ratio versus control","[3]; day 28 (second line of this name, r16)",0.81*
